Values joined by “and” are separate entries in the source; they are usually repeats but may differ in a detail not shown here. Equal values may be shown once.
Experiment: xn = mol fraction of the nth substance listed
Conditions: Fluid (supercritical or subcritical phases), Frequency=5 MHz, Pulse-echo method

O=C=O [carbon dioxide] + CO
Conditions | speed of sound
298.13 K, 40050 kPa, x1 = 0.7534 | 817.8 m/s
298.13 K, 44960 kPa, x1 = 0.925 | 802 m/s
298.13 K, 44980 kPa, x1 = 0.925 | 802.5 m/s
298.13 K, 45000 kPa, x1 = 0.8502 | 812.9 m/s
298.13 K, 45000 kPa, x1 = 0.925 | 803.5 m/s
298.13 K, 45020 kPa, x1 = 0.7534 | 848.9 m/s
298.13 K, 45020 kPa, x1 = 0.925 | 803 m/s
298.13 K, 49980 kPa, x1 = 0.925 | 832.4 m/s and 833.5 m/s
298.13 K, 49990 kPa, x1 = 0.925 | 832.8 m/s
298.13 K, 50010 kPa, x1 = 0.925 | 833.6 m/s
298.13 K, 50070 kPa, x1 = 0.7534 | 878.2 m/s
298.13 K, 50080 kPa, x1 = 0.8502 | 843 m/s
298.13 K, 54890 kPa, x1 = 0.7534 | 904.5 m/s
298.13 K, 54910 kPa, x1 = 0.8502 | 869.9 m/s
298.13 K, 54940 kPa, x1 = 0.925 | 860.9 m/s
298.13 K, 54950 kPa, x1 = 0.925 | 860.2 m/s
298.13 K, 54970 kPa, x1 = 0.925 | 861.2 m/s
298.13 K, 55000 kPa, x1 = 0.925 | 860.7 m/s
298.13 K, 59950 kPa, x1 = 0.8502 | 896.4 m/s
298.13 K, 59970 kPa, x1 = 0.925 | 886.8 m/s
298.13 K, 60000 kPa, x1 = 0.925 | 887 m/s
298.13 K, 60010 kPa, x1 = 0.925 | 887.7 m/s
298.13 K, 60020 kPa, x1 = 0.925 | 887.7 m/s
298.13 K, 60230 kPa, x1 = 0.7534 | 932.1 m/s
298.13 K, 64680 kPa, x1 = 0.7534 | 953.8 m/s
298.13 K, 64950 kPa, x1 = 0.925 | 912 m/s
298.13 K, 64960 kPa, x1 = 0.925 | 911.8 m/s
298.13 K, 64990 kPa, x1 = 0.925 | 912.4 m/s
298.13 K, 65010 kPa, x1 = 0.925 | 911.9 m/s
298.13 K, 65100 kPa, x1 = 0.8502 | 922 m/s
298.13 K, 69930 kPa, x1 = 0.8502 | 944.8 m/s
298.13 K, 69960 kPa, x1 = 0.925 | 935.2 m/s
298.13 K, 69970 kPa, x1 = 0.925 | 935.8 m/s
298.13 K, 69980 kPa, x1 = 0.925 | 935.3 m/s
298.13 K, 70000 kPa, x1 = 0.925 | 936 m/s
298.13 K, 70030 kPa, x1 = 0.7534 | 978.8 m/s
298.13 K, 74960 kPa, x1 = 0.925 | 957.7 m/s
298.13 K, 74970 kPa, x1 = 0.925 | 957.9 m/s and 958.4 m/s
298.13 K, 75000 kPa, x1 = 0.925 | 958.5 m/s
298.13 K, 75120 kPa, x1 = 0.8502 | 968.2 m/s
298.13 K, 75550 kPa, x1 = 0.7534 | 1003.2 m/s
298.13 K, 79950 kPa, x1 = 0.925 | 979.9 m/s
298.13 K, 79970 kPa, x1 = 0.925 | 979.7 m/s
298.13 K, 79990 kPa, x1 = 0.8502 | 989 m/s
298.13 K, 79990 kPa, x1 = 0.925 | 979.4 m/s
298.13 K, 80530 kPa, x1 = 0.7534 | 1024.4 m/s
298.13 K, 89880 kPa, x1 = 0.8502 | 1029.2 m/s
298.13 K, 89960 kPa, x1 = 0.925 | 1019.7 m/s
298.13 K, 89980 kPa, x1 = 0.925 | 1020.4 m/s
298.13 K, 90000 kPa, x1 = 0.925 | 1020 m/s and 1020.4 m/s
298.13 K, 90430 kPa, x1 = 0.7534 | 1064.1 m/s
298.13 K, 99830 kPa, x1 = 0.7534 | 1098.9 m/s
298.13 K, 99970 kPa, x1 = 0.925 | 1057.9 m/s
298.13 K, 99990 kPa, x1 = 0.925 | 1057.5 m/s
298.13 K, 100010 kPa, x1 = 0.8502 | 1067.3 m/s
298.13 K, 100010 kPa, x1 = 0.925 | 1057.5 m/s
298.13 K, 100040 kPa, x1 = 0.925 | 1057.3 m/s
298.13 K, 109890 kPa, x1 = 0.8502 | 1102.7 m/s
298.13 K, 109950 kPa, x1 = 0.925 | 1092.7 m/s
298.13 K, 109980 kPa, x1 = 0.925 | 1093.2 m/s
298.13 K, 109990 kPa, x1 = 0.925 | 1092.8 m/s and 1093.2 m/s
298.13 K, 110320 kPa, x1 = 0.7534 | 1136.1 m/s
298.13 K, 119500 kPa, x1 = 0.8502 | 1135.1 m/s
298.13 K, 119930 kPa, x1 = 0.925 | 1126 m/s
298.13 K, 119960 kPa, x1 = 0.925 | 1126.1 m/s
298.13 K, 119990 kPa, x1 = 0.925 | 1125.8 m/s
298.13 K, 120000 kPa, x1 = 0.925 | 1126 m/s
298.13 K, 120120 kPa, x1 = 0.7534 | 1168.5 m/s
298.13 K, 129960 kPa, x1 = 0.925 | 1157.1 m/s
298.13 K, 129970 kPa, x1 = 0.925 | 1157.2 m/s and 1157.6 m/s
298.13 K, 130000 kPa, x1 = 0.925 | 1157.5 m/s
298.13 K, 139110 kPa, x1 = 0.7534 | 1226.8 m/s
298.13 K, 139980 kPa, x1 = 0.925 | 1186.8 m/s and 1187.3 m/s
298.13 K, 139990 kPa, x1 = 0.925 | 1187.1 m/s
298.13 K, 140030 kPa, x1 = 0.925 | 1187.4 m/s
298.13 K, 140060 kPa, x1 = 0.8502 | 1198.2 m/s
298.13 K, 149950 kPa, x1 = 0.925 | 1215.3 m/s and 1215.7 m/s
298.13 K, 149960 kPa, x1 = 0.925 | 1215.5 m/s
298.13 K, 149990 kPa, x1 = 0.925 | 1215.1 m/s
298.13 K, 159590 kPa, x1 = 0.7534 | 1284.3 m/s
298.13 K, 159960 kPa, x1 = 0.925 | 1242.8 m/s
298.13 K, 159970 kPa, x1 = 0.925 | 1242.8 m/s
298.13 K, 159980 kPa, x1 = 0.925 | 1242.2 m/s
298.13 K, 159990 kPa, x1 = 0.925 | 1242.6 m/s
298.13 K, 160550 kPa, x1 = 0.8502 | 1255.2 m/s
298.13 K, 169970 kPa, x1 = 0.925 | 1268.9 m/s
298.13 K, 169980 kPa, x1 = 0.925 | 1268.9 m/s
298.13 K, 169990 kPa, x1 = 0.925 | 1268.1 m/s
298.13 K, 170010 kPa, x1 = 0.925 | 1268.7 m/s
298.13 K, 178270 kPa, x1 = 0.8502 | 1301.3 m/s
298.13 K, 179990 kPa, x1 = 0.925 | 1293.2 m/s
298.13 K, 180020 kPa, x1 = 0.925 | 1293.8 m/s and 1294 m/s
298.13 K, 180060 kPa, x1 = 0.925 | 1294.1 m/s
298.13 K, 180370 kPa, x1 = 0.7534 | 1338.1 m/s
298.13 K, 189940 kPa, x1 = 0.925 | 1316.8 m/s
298.13 K, 189950 kPa, x1 = 0.925 | 1317.9 m/s
298.13 K, 189970 kPa, x1 = 0.925 | 1317.8 m/s
298.13 K, 190010 kPa, x1 = 0.925 | 1317.9 m/s
298.14 K, 44940 kPa, x1 = 0.9803 | 798 m/s
298.14 K, 50050 kPa, x1 = 0.9803 | 829.6 m/s
298.14 K, 54980 kPa, x1 = 0.9803 | 857.8 m/s
298.14 K, 60140 kPa, x1 = 0.9803 | 885.4 m/s
298.14 K, 64990 kPa, x1 = 0.9803 | 909.9 m/s
298.14 K, 70210 kPa, x1 = 0.9803 | 935 m/s
298.14 K, 75300 kPa, x1 = 0.9803 | 958.1 m/s
298.14 K, 80240 kPa, x1 = 0.9803 | 979.6 m/s
298.14 K, 89800 kPa, x1 = 0.9803 | 1018.7 m/s
298.14 K, 100450 kPa, x1 = 0.9803 | 1059.1 m/s
298.14 K, 109890 kPa, x1 = 0.9803 | 1092.5 m/s
298.14 K, 120160 kPa, x1 = 0.9803 | 1126.5 m/s
298.14 K, 130400 kPa, x1 = 0.9803 | 1158.4 m/s
298.14 K, 139810 kPa, x1 = 0.9803 | 1185.8 m/s
298.14 K, 150170 kPa, x1 = 0.9803 | 1215.7 m/s
298.14 K, 160470 kPa, x1 = 0.9803 | 1243.6 m/s
304.19 K, 24950 kPa, x1 = 0.97 | 621 m/s
304.19 K, 29960 kPa, x1 = 0.97 | 668.7 m/s
304.19 K, 34880 kPa, x1 = 0.97 | 709.6 m/s
304.19 K, 39930 kPa, x1 = 0.97 | 747.2 m/s
304.19 K, 44970 kPa, x1 = 0.97 | 781.3 m/s
304.19 K, 50020 kPa, x1 = 0.97 | 812.8 m/s
304.19 K, 54970 kPa, x1 = 0.97 | 841.5 m/s
304.19 K, 59970 kPa, x1 = 0.97 | 868.6 m/s

Source: the NIST ThermoML archive (doi:10.1016/j.jct.2016.03.026)
